Experimental data published in US11266712B2, “Antimicrobial peptides and methods of using the same” (Riptide Bioscience, Inc., priority 2018, dated 2022).

Columns and labels:
P. aeruginosa 27853 = assay: Resistance development, 30 serial passages at sub-MIC; format: cell-based; details: after 30 days / 30 serial passages
Description: (§1) Sub-inhibitory concentrations of RP557, gentamicin and clindamycin were incubated with P. aeruginosa 27853 and S. aureus 29213 for 24 hours. Bacteria showing growth in the highest concentration were re-passaged in fresh dilutions containing sub-minimum inhibitory concentration (MIC) levels of each component for 30 consecutive passages.
as §1, with “FIG. 4A to 4B. […] Sub-inhibitory” for “Sub-inhibitory”, “passages; means are shown.” for “passages.”

C. albicans (ATCC 44858) = assay: Rodent model of vulvovaginal candidiasis; format: in vivo; details: rat, oral fluconazole
Description: FIG. 8A to 8B indicates topical treatment of exemplary peptide RP557 reduces rodent vaginal candidiasis. Effects of RP557, miconazole and oral fluconazole in a C. albicans vaginal infection rodent model. On Day 0, rats were inoculated intravaginally with C. albicans. RP557 and miconazole were administered twice daily (FIG. 8A). A separate group received oral fluconazole (FIG. 8B). Further details are provided in the experimental section.
RP557 was effective in eradicating C. albicans in a rodent model of vulvovaginal candidiasis (FIG. 8A-8B).
FIG. 8A to 8B. RP557 topical treatment reduces rodent vaginal candidiasis. Effects of RP557, miconazole and oral fluconazole in the C. albicans (ATCC 44858) vaginal infection rodent model. On Day 0, rats were inoculated intravaginally (IVG) with C. albicans at 1.46×10^7 CFU/rat. RP557 and miconazole at 20 mg/mL were administered IVG at 0.1 mL/rat twice daily at 8 hr intervals starting from 48 hr after infection for 3 days. CPUs were evaluated on Day 5 with limit of detection (LOD) 0.7 CFU/rat. Significant difference, compared to vehicle, determined by one-way ANOVA followed by Dunnett's test (*p<0.05, ****p<0.0001). A separate group receiving oral fluconazole; *p<0.05 versus 0.1 and 10 mg/kg fluconazole.

S. aureus 29213 = assay: Resistance development, 30 serial passages at sub-MIC; format: cell-based; details: after 30 days / 30 serial passages
Description: as §1
as §1, with “FIG. 4A to 4B. […] Sub-inhibitory” for “Sub-inhibitory”, “passages; means are shown.” for “passages.”

gentamicin
growth at multiple of the MIC after 30 days (P. aeruginosa 27853): 4096 times the minimum inhibitory concentration (MIC)

OC(Cn1cncn1)(Cn1cncn1)c1ccc(F)cc1F [fluconazole]
activity on fungal counts (C. albicans (ATCC 44858)): minimal activity

CCC[C@@H]1C[C@@H](C(=O)N[C@@H]([C@H]2O[C@H](SC)[C@H](O)[C@@H](O)[C@H]2O)[C@H](C)Cl)N(C)C1 [clindamycin]
growth at multiple of the MIC after 30 days (S. aureus 29213): 256 times the minimum inhibitory concentration (MIC)
